The source of these data is patent publication US20250032403A1, “COMPOSITIONS FOR TREATING PERIODONTAL DISEASES” (GR Biosystems, Inc., priority 2017, published 2025).

“Also recorded” adds a separate entry of the source.

In assay [1] the test system is MMP-9. Put plainly: Real time quantitative PCR of MMP-9 gene expression in HGF-1 cells. It counts as cell-based, human. How it is done: (§1) Gene expression of MMPs was evaluated after treatment under different conditions. The tissue culture was washed with PBS. […] All samples were treated with Qiagen DNase (Cat #79254).
(§2) Real time quantitative PCR was performed on an Applied Biosciences StepOne plus instrument and analyzed with StepOne software v2.3. The relative amounts of transcripts from each gene were normalized to reference gene GAPDH and calculated as follows: ΔΔCT=the average ΔCT of […]−the average ΔCT of […], and their fold difference=2^−ΔΔCT as previously described.

Assay [2] has as its system Human MMP-2; MMP2. Nature of the assay: Real time quantitative PCR of MMP-2 gene expression in HGF-1 cells. It counts as cell-based. How it is done:
as §1, §2

Assay [3] relates to MMP-2. Put plainly: Western blot of MMP-2 protein expression in LPS-induced HGF-1 cells. As to conditions: for MMP-2 production: HGF-1, LPS 5 μg/mL + curcumin 2.5, 5 or 10 μM, n=3, FIG. 15. The assay is classed as cell-based, human. How it is done:
(§3) Human Gingival Fibroblasts (HGF-1) were purchased from ATCC (Manassas, VA) and were grown in DMEM with Glutamax, 10% FBS and Penicillin/Streptomycin (All from Gibco) and kept at 37° C. in a humidified air chamber with 5% CO2. Cells were seeded at 3×10^5 cells/flask for the experiments and then grown to confluency. Cells between 3 and 10 passages were used for all experiments.
(§4) 1,2,3,4,6-Penta-O-galloyl-β-D-glucose (purchased from Sigma-Aldrich) was dissolved in dimethylsulfoxide (DMSO) to obtain a 100 mM stock solution.
(§5) The supernatant was collected and assayed for protein concentration.
(§6) The gels were prepared by standard methods and electrophoresed for 1 hour at 150 V.
(§7) Incubation was done according to specific instructions from the manufacturer for each antibody. […] After incubation and washing with PBS-T, the membranes were incubated in the dark in blocking solution with 0.2% Tween, IRDye 800CW Goat anti-Rabbit IgG, and IRDye® 680RD Donkey anti-Mouse IgG (1:10000, LI-COR Biosciences, Lincoln, NE) for 1 hour at room temperature. The proteins were detected and visualized by fluorescence using the Licor Odyssey Classic Infrared Imaging system (LI-COR Biosciences, Lincoln, NE). Densitometry analysis of specific bands was performed with the Image Studio software provided by LI-COR Biosciences. Statistical analysis, including 1-way ANOVA with Dunnett's Multiple Comparison Test, was done using GraphPad Prism (GraphPad Software, La Jolla, CA).
Human gingival fibroblasts (HGF-1) were treated with lipopolysaccharide (LPS) from P. gingivalis to reproduce the type of inflammatory response seen in chronic periodontitis. Upon treatment with […], MMP-2 was released into the pericellular space to be activated by MMP-14. Subsequently, MMP-2 and MMP-14 activate MMP-13. […] LPS activation of MMP-2, MMP-13 and MMP-14, however, was attenuated by the administration of PGG.
(§8) HGF-1 cells were induced with LPS (5 μg/mL) to mimic the inflammatory process and Curcumin was added at different concentrations (2.5, 5 and 10 μM).
For orientation: A western blot detects proteins with antibodies after separation by electrophoresis.

In assay [4] the target is T1, MyD88 adaptor protein (Mus musculus, UniProt P22366).
T1 construct: host or cells: peritoneal and colonic macrophages
T1 sequence (P22366 whole entry): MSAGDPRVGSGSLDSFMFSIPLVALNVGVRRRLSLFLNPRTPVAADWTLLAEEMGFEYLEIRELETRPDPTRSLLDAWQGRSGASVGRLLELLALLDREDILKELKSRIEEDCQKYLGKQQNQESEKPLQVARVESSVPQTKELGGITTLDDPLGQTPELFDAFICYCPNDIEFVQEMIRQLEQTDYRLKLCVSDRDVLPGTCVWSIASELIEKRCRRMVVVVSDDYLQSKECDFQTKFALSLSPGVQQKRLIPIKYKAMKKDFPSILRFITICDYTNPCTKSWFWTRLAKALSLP
As to conditions: peritoneal and colonic macrophages; cited from earlier work.

Assay [5] relates to Human MMP-13; MMP13. Nature of the assay: Real time quantitative PCR of MMP-13 gene expression in HGF-1 cells. The assay is classed as cell-based. The method, then:
as §1, §2

Assay [6] concerns TNF-α, IL-1β and IL-6. As to conditions: peritoneal and colonic macrophages; cited from earlier work.
Assay [7] has as its system Human MMP-14; MMP14. Put plainly: Real time quantitative PCR of MMP-14 gene expression in HGF-1 cells. It counts as cell-based. The method, then: as §1, §2
Assay [8] deals with MMP-13. Nature of the assay: Western blot of MMP-13 protein expression in LPS-induced HGF-1 cells. The assay is classed as cell-based, human. The method, then: as §3, §4, §5, §6
as §7, with “Statistical analysis, including 1-way ANOVA with Dunnett's Multiple Comparison Test, was done using GraphPad Prism (GraphPad Software, La Jolla, CA).” left out

Assay [9] deals with TNF-α and IL-1β. Conditions: peripheral blood mononuclear cells, PGG alone; cited from earlier work.
For assay [10], the system named is TNF-α. Conditions: PBMCs, doses as low as 5 μM; cited from earlier work.
The test system of assay [11] is toll-like receptors 4 (TLR4). As to conditions: peritoneal and colonic macrophages; cited from earlier work.
Assay [12] has as its system MMPs. Put plainly: Real time quantitative PCR of MMP gene expression (all MMPs tested) in HGF-1 cells. It counts as cell-based, human. How it is done: as §1, §2
Assay [13] relates to MMP-3. Put plainly: Western blot of MMP-3 protein expression in LPS-induced HGF-1 cells. The assay is classed as cell-based, human. How it is done: as §3, §4, §5, §6, §7
HGF-1 cells were treated with lipopolysaccharide (LPS, 5 μg/mL) from P. gingivalis in order to reproduce the type of inflammatory response seen in chronic periodontitis.
as §8

The test system of assay [14] is MMP-9. Nature of the assay: Western blot of MMP-9 protein expression in LPS-induced HGF-1 cells. It counts as cell-based, human. As to conditions: FIG. 5. How it is done: as §3, §4, §5, §6
as §7, with “Statistical analysis, including 1-way ANOVA with Dunnett's Multiple Comparison Test, was done using GraphPad Prism (GraphPad Software, La Jolla, CA).” left out

The test system of assay [15] is MMP-14. Put plainly: Western blot of MMP-14 protein expression in LPS-induced HGF-1 cells. It counts as cell-based, human. How it is done: as §3, §4, §5, §6
as §7, with “Statistical analysis, including 1-way ANOVA with Dunnett's Multiple Comparison Test, was done using GraphPad Prism (GraphPad Software, La Jolla, CA).” left out

The mark [16] stands for this setting: HGF-1, LPS 5 μg/mL + PGG 100 μM, p<0.05, n=3.
Where [17] appears, read: HGF-1, LPS + PGG 50-100 μM, FIG. 6.
Where [18] appears, read: HGF-1, LPS + PGG 25 μM (lowest dose tested), 48 hours.

For the compound `O=C(OC[C@H]1O[C@@H](OC(=O)c2cc(O)c(O)c(O)c2)[C@H](OC(=O)c2cc(O)c(O)c(O)c2)[C@@H](OC(=O)c2cc(O)c(O)c(O)c2)[C@@H]1OC(=O)c1cc(O)c(O)c(O)c1)c1cc(O)c(O)c(O)c1` [PGG, 1,2,3,4,6-penta-O-galloyl-β-D-glucose], in assay [1] (setting [16]), the “MMP-9 gene expression compared with induction with LPS alone” value was “significantly reduced the expression of MMP-9, MMP-13 and MMP-14”. In addition, in assay [1] (setting [17]), the “MMP-9 gene expression compared with LPS induction with or without PGG 25 μM” value was “reduced MMP-2, MMP-9, MMP-13, and MMP-14 expression”. Besides, in [2] (HGF-1, LPS 5 μg/mL + PGG 100 μM, p<0.01, n=3, FIG. 6), the MMP-2 gene expression result is “decreased the expression of MMP-2 compared to treatment with PGG 25-50 μM, yet expression was still higher compared with healthy HGF-1”. Moreover, the “MMP-2 gene expression compared with LPS induction with or without PGG 25 μM” value in assay [2] (setting [17]) is “reduced MMP-2, MMP-9, MMP-13, and MMP-14 expression”. In assay [3] (setting [18]), the “MMP-2 protein level after LPS treatment” value is “reduction of these three MMPs to basal levels of production”. The “MMP-2 levels compared to healthy control” value in assay [3] (HGF-1, PGG 100 μM, FIG. 1) was “reduced significantly; also recorded: lower than in healthy controls”. Moreover, the “MMP-2 expression compared to healthy controls” value in assay [3] (HGF-1, simultaneously treated with LPS and increasing PGG concentrations, FIG. 1) is “not significantly different than in healthy controls”. In addition, the “interaction with MyD88 adaptor protein” value in [4] is “interacted directly”. Further, the “MMP-13 gene expression compared with induction with LPS alone” value in [5] (setting [16]) is “significantly reduced the expression of MMP-9, MMP-13 and MMP-14”. Besides, the “MMP-13 gene expression compared with LPS induction with or without PGG 25 μM” value in [5] (setting [17]) was “reduced MMP-2, MMP-9, MMP-13, and MMP-14 expression”. In addition, the “production of TNF-α, IL-1β and IL-6” value in assay [6] is on record as “decreasing the production”. Also, the “MMP-14 gene expression compared with induction with LPS alone” value in [7] (setting [16]) was “significantly reduced the expression of MMP-9, MMP-13 and MMP-14”. In assay [7] (setting [17]), the “MMP-14 gene expression compared with LPS induction with or without PGG 25 μM” value is “reduced MMP-2, MMP-9, MMP-13, and MMP-14 expression”. Further, in assay [8] (setting [18]), the “MMP-13 protein level after LPS treatment” value is “reduction of these three MMPs to basal levels of production”. For the same compound, in assay [8] (HGF-1, LPS + PGG, FIG. 2), the “MMP-13 expression in the PGG treated groups” value is recorded as “not significantly different than the healthy controls; also recorded: prevented upregulation of MMP-13 in a dose-dependent manner”. Besides, in assay [9], the “cytokine production of PBMCs on treatment with PGG” value was “resulted in the production of TNF-α and IL-1β”. In assay [10], the “suppression of LPS-induced TNF-α production” value is at most 90%. Further, the “interference with the binding of LPS to TLR4” value in assay [11] is given as “did not interfere”. In assay [12] (HGF-1, LPS 5 μg/mL + PGG 25 μM, FIG. 6), the MMP gene expression result is listed as “did not vary gene expression in a significant manner”. In addition, the MPP gene expression result in assay [12] (healthy HGF-1 (no LPS), PGG 100 μM) is reported as “did not significantly change”. Further, the MMP-3 protein level entry is recorded as “comparable to healthy control values” in [13] (HGF-1, LPS 5 μg/mL + PGG 25 μM, FIG. 4); “further reduced MMP-3 to levels below basal production” in [13] (HGF-1, LPS 5 μg/mL + PGG 50 and 100 μM, p<0.001, FIG. 4). For the same compound, the “MMP-9 protein level compared to LPS inflammatory control” value in [14] (HGF-1, LPS 5 μg/mL + PGG at a dose lower than 50 μM) was “decreased the MMP-9 level”. In addition, in [14] (HGF-1, LPS 5 μg/mL + PGG), the “MMP-9 protein level, return to normal levels” value is given as “did not return to normal levels until it was treated with at least 50 μM PGG”. Besides, the “MMP-14 expression in the PGG treated groups” value in [15] (HGF-1, LPS 5 μg/mL + PGG, 48 hour, FIG. 3) is listed as “not significantly different than the healthy controls; also recorded: not significantly different from healthy controls”. Moreover, the “MMP-14 protein level after LPS treatment” value in [15] (setting [18]) is listed as “reduction of these three MMPs to basal levels of production”.

Turning to `COc1cc(/C=C/C(=O)CC(=O)/C=C/c2ccc(O)c(OC)c2)ccc1O` [curcumin, reference compound], the MMP-2 production entry in assay [3] is given as “not significantly different that the untreated HGF-1”; in [3] (listed as Curcumin) it was “decreased MMP-2 production”. Besides, in [3] (HGF-1 treated with Curcumin 10 μM alone (no LPS), p>0.05, n=3), the MMP-2 expression entry was “not significantly different from untreated HGF-1”. For the same compound, in [13] (HGF-1, LPS 5 μg/mL + curcumin 2.5, 5 and 10 μM, FIG. 16), the MMP-3 production entry is “decreased MMP-3 production”.
